In patent US5436229A, “Bisulfite adducts of arginine aldehydes” (Eli Lilly and Company, priority 1994, dated 1995):
Non-standard residues stand in square brackets, D forms with d. Residues, ends and D or L forms follow the SMILES beside them. dNMeCha = CN[C@H](CC1CCCCC1)C(=O)O

Columns and labels:
[1] = Epimerization inhibition by sodium bisulfite (compound of Example 80, Step F); assay type: physicochemical; conditions: pH 7.4, 50° C.
Protocol: A 55.55 mM aqueous sodium phosphate solution (adjusted pH 7.4 with sodium hydroxide) was mixed with a 27.77 mM sodium bisulfite/27.77 mM sodium phosphate solution (adjusted pH 7.4 with sodium hydroxide) and water in various ratios to produce buffers containing 0,5.55, 16.66 and 27.77 mM sodium bisulfite. A 0.9 ml aliquot of each sodium bisulfite/phosphate buffer was added to separate 13×100 mm culture tubes and placed in a 50° C. Isotherm Tempblok® heater for 15 minutes. To each culture tube 0.1 ml of a 1 mg/ml aqueous solution of D-3-Piq-Pro-Arg-H.H2 SO4 (Example 80, Step F) was added and mixed well. […] These samples were allowed to react for 15 minutes at 90° C. and were then evaporated to dryness with nitrogen in a 55° C. N-Evap. The residue was dissolved in 1 ml of methanol and transferred to Varian Si BondElut SPE columns (1 ml) previously conditioned with 1 ml of water then 1 ml of methanol. The dissolved samples were pulled through solwly with a slight vacuum, and the sorbent layer was then washed with 2-1 ml volumes of methanol. The SPE columns were then dried at full vacuum (~25 in. Hg) and the compounds of interest were eluted with 300 μl of acetonitrile/100 mM sodium dodecyl sulfate (adjusted to pH 3 with phosphoric acid) (7:3, v/v) into 12×75 mm culture tubes. These eluates were analyzed by the HPLC system described below.
The mobile phase was acetonitrile/180 mM sodium dodecyl sulfate (adjusted to pH 3 with phosphoric acid) (85:15, v/v) pumped at 0.5 ml/min with a Shimadzu LC-10AD pump. The column was an Inertsil ODS(2) 150×3.0 mm maintained at 40° C. with a Jones Chromatography 7960 column heater. Twenty-five microliter injections were made with a Waters WISP 712 autosampler. Detection was accomplished with a Kratos 783 UV detector at 360 nm. The percentage of the DLD isomer was calculated using the peak areas of the DLL and DLD isomers in the chromatograms and the following equation: [formula]

human plasma = test: Human plasma anticoagulation, activated partial thromboplastin time (APTT); assay type: biochemical
How it was run: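 Compounds added across a wide concentration range to human plasma; APTT, PT and TT clotting times measured on a coagulation instrument, bovine thrombin used for plasma assays. Concentration doubling clotting time estimated by linear extrapolation.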

Q: Which “Percentage of DLD Isomer” value ([1]; sodium bisulfite 0 mM, 0 hr) does the source give for N=C(N)NCCCC(C=O)NC(=O)C1CCCN1C(=O)C1CC2CCCCC2CN1.O=S(=O)(O)O [80 (Step F), D-3-(cis)Piq-Pro-Arg-H.H2 SO4] here?
A: The value was 4.84%.

Q: What about the “Percentage of DLD Isomer” value ([1]; sodium bisulfite 0 mM, 0.5 hr) of the same compound?
A: Its value is 46.00%.

Q: And the “Percentage of DLD Isomer” value ([1]; sodium bisulfite 0 mM, 1 hr)?
A: Its value is 49.42%.

Q: And the “Percentage of DLD Isomer” value ([1]; sodium bisulfite 0 mM, 2 hr)?
A: Its value is 49.53%.

Q: And the “Percentage of DLD Isomer” value ([1]; sodium bisulfite 0 mM, 3 hr)?
A: Its value is 50.16%.

Q: What about the “Percentage of DLD Isomer” value ([1]; sodium bisulfite 0 mM, 4 hr) of the same compound?
A: The value was 50.36%.

Q: What about the “Percentage of DLD Isomer” value ([1]; sodium bisulfite 0 mM, 6 hr) of the same compound?
A: The value was 49.71%.

Q: What about the “Percentage of DLD Isomer” value ([1]; sodium bisulfite 0 mM, 8 hr) of the same compound?
A: The value was 49.92%.

Q: What about the “Percentage of DLD Isomer” value ([1]; sodium bisulfite 5 mM, 0 hr) of the same compound?
A: The value was 4.23%.

Q: What about the “Percentage of DLD Isomer” value ([1]; sodium bisulfite 5 mM, 0.5 hr) of the same compound?
A: The value was 43.52%.

Q: And the “Percentage of DLD Isomer” value ([1]; sodium bisulfite 5 mM, 1 hr)?
A: Its value is 48.99%.

Q: And the “Percentage of DLD Isomer” value ([1]; sodium bisulfite 5 mM, 2 hr)?
A: The value was 47.98%.

Q: What about the “Percentage of DLD Isomer” value ([1]; sodium bisulfite 5 mM, 3 hr) of the same compound?
A: The value was 49.89%.

Q: And the “Percentage of DLD Isomer” value ([1]; sodium bisulfite 5 mM, 4 hr)?
A: Its value is 49.90%.

Q: What about the “Percentage of DLD Isomer” value ([1]; sodium bisulfite 5 mM, 6 hr) of the same compound?
A: The value was 49.80%.

Q: And the “Percentage of DLD Isomer” value ([1]; sodium bisulfite 5 mM, 8 hr)?
A: Its value is 50.08%.

Q: And the “Percentage of DLD Isomer” value ([1]; sodium bisulfite 15 mM, 0 hr)?
A: Its value is 4.16%.

Q: And the “Percentage of DLD Isomer” value ([1]; sodium bisulfite 15 mM, 0.5 hr)?
A: Its value is 27.80%.

Q: What about the “Percentage of DLD Isomer” value ([1]; sodium bisulfite 15 mM, 1 hr) of the same compound?
A: The value was 40.63%.

Q: And the “Percentage of DLD Isomer” value ([1]; sodium bisulfite 15 mM, 2 hr)?
A: The value was 45.06%.

Q: What about the “Percentage of DLD Isomer” value ([1]; sodium bisulfite 15 mM, 3 hr) of the same compound?
A: The value was 45.72%.

Q: And the “Percentage of DLD Isomer” value ([1]; sodium bisulfite 15 mM, 4 hr)?
A: Its value is 49.24%.

Q: And the “Percentage of DLD Isomer” value ([1]; sodium bisulfite 15 mM, 6 hr)?
A: Its value is 49.63%.

Q: What about the “Percentage of DLD Isomer” value ([1]; sodium bisulfite 15 mM, 8 hr) of the same compound?
A: Its value is 49.99%.

Q: And the “Percentage of DLD Isomer” value ([1]; sodium bisulfite 25 mM, 0 hr)?
A: The value was 3.71%.

Q: What about the “Percentage of DLD Isomer” value ([1]; sodium bisulfite 25 mM, 0.5 hr) of the same compound?
A: The value was 4.56%.

Q: And the “Percentage of DLD Isomer” value ([1]; sodium bisulfite 25 mM, 1 hr)?
A: Its value is 5.14%.

Q: What about the “Percentage of DLD Isomer” value ([1]; sodium bisulfite 25 mM, 2 hr) of the same compound?
A: The value was 5.31%.

Q: And the “Percentage of DLD Isomer” value ([1]; sodium bisulfite 25 mM, 3 hr)?
A: The value was 5.79%.

Q: And the “Percentage of DLD Isomer” value ([1]; sodium bisulfite 25 mM, 4 hr)?
A: Its value is 6.06%.

Q: What about the “Percentage of DLD Isomer” value ([1]; sodium bisulfite 25 mM, 6 hr) of the same compound?
A: Its value is 6.39%.

Q: What about the “Percentage of DLD Isomer” value ([1]; sodium bisulfite 25 mM, 8 hr) of the same compound?
A: The value was 6.72%.

Q: With CN[C@H](CC1CCCCC1)C(=O)N1CCC[C@H]1C(=O)N[C@H](C=O)CCCNC(=N)N.Cl [Example 75, N-methyl-D-cyclohexylalanyl-L-Prolinyl-L-Arginine Aldehyde Hydrochloride] (H-[dNMeCha]-Pro-Arg-aldehyde) as the compound, how does the “2 × Clotting time APTT” value (human plasma) read?
A: The value was 420 ng/mL.
